Article PMC7767178 (International Journal of Molecular Sciences, 2020)
Like-named read-outs stand apart in the source and are kept apart here.

Legend:
E. coli CVCC25922 = assay: microbe, parasite or virus in culture; assay type: cell-based
Source text: (§1) All experiments were repeated three times.

S. pullorum CVCC1809 = assay: microbe, parasite or virus in culture; assay type: cell-based
Source text: as §1

A. veronii X-1-06909 = assay: microbe, parasite or virus in culture; assay type: cell-based
Source text: as §1

E. coli CVCC1515 = assay: microbe, parasite or virus in culture; assay type: cell-based
Source text: as §1

S. pullorum CVCC533 = assay: microbe, parasite or virus in culture; assay type: cell-based
Source text: as §1

Escherichia coli CVCC195 = assay: microbe, parasite or virus in culture; assay type: cell-based
Source text: as §1

S. enteritidis CVCC3377 = assay: microbe, parasite or virus in culture; assay type: cell-based
Source text: as §1

S. pullorum CVCC1789 = assay: microbe, parasite or virus in culture; assay type: cell-based
Source text: as §1

[1] = tested on: Candida albicans CMCC98001; assay: microbe, parasite or virus in culture; assay type: cell-based; details: CMCC98001
Source text: as §1

[2] = tested on: Staphylococcus aureus ATCC43300; assay: microbe, parasite or virus in culture; assay type: cell-based
Source text: as §1

[3] = tested on: A. veronii ACCC61732 in biofilm; assay type: cell-based; details: 2 h
Experimental: The mid-log phase A. veronii ACCC61732 cells (1 × 10^8 CFU/mL) were inoculated into in the 96-well plates and cultured for 24 h at 37 °C. The plates were washed twice with PBS. […] PBS was used as the negative control. The plates were treated with ultrasound for 5 min and the viable bacteria were counted on the TSA plates.

A. veronii ACCC61732 [4] = assay: microbe, parasite or virus in culture; assay type: cell-based
Source text: The checkerboard microtiter assay was used to determine the combinations of peptides with different antibiotics (including quinolone, rifamycin, peptide antibiotics, aminoglycoside, tetracycline, and chloramphenicol). […] The fractional inhibitory concentration (FIC) was used to calculate the combination effects using the following formula: FIC index (FICI) = MIC(peptide in combination)/MIC(peptide alone) + MIC(antibiotic in combination)/MIC(antibiotic alone). FICI ≤ 0.5 means synergistic, 0.5 < FICI ≤ 1 means additive action, 1 < FICI ≤ 4 means indifference, and FICI > 4 means antagonism.

A. veronii ACCC61732 [5] = assay: Resistance development, 30 serial passages; assay type: cell-based; details: A. veronii ACCC61732, 30 passages (30 days)
Experimental: The development of bacterial resistance of peptides was performed by the MIC assays. […] GEN, CIP, and PMB were used as controls. […] The MIC values were measured as described above. The serial passaging was repeated for 30 days.

E. coli CVCCO157 = assay: MIC, microtiter broth dilution; assay type: cell-based; details: 37 °C, 16–18 h, three experiments
Source text: as §1

A. veronii ACCC61732 [6] = assay: Time-killing curves; assay type: cell-based; details: 2× MIC; 1 × 10^5 CFU/mL, colony counting, 0–24 h
Experimental: Time-killing curves were performed as previously described. […] The sample of 100 μL was taken from each flask at 0, 0.5, 1, 2, 4, 6, 8, 10, 20, and 24 h, respectively, and serially diluted for colony counting. PBS and CIP were used as the negative and positive control, respectively.

A. veronii ACCC61732 [7] = assay: Post-antibiotic effect (PAE); assay type: cell-based; details: for PAE: 2 h exposure, 1000-fold dilution, 37 °C, triplicate
Experimental: The samples were taken from flasks for counting each hour until bacterial cultures became turbid. The untreated bacteria severed as controls. The PAE was calculated using the following equation: PAE = T − C, where T is the time (h) required for the CFU in the test culture to increase by 10-fold from the count immediately after the drug removal and C is the corresponding time (h) for the control. The experiment was performed in triplicate.

S. hyicus 437-2 = assay type: cell-based
A. veronii ACCC61732 [8] = assay: Mouse peritonitis model, bacterial translocation to organs; assay type: in vivo, ICR mice; details: 5 μmol/kg, 24 h post-treatment, colony counting
Experimental: Sera and organs (livers, kidneys, spleens, and lungs) were collected from the mice at 24 h post-treatment. The organs were homogenized in sterile PBS to evaluate bacterial translocation by colony counting. The levels of cytokines (TNF-α, IL-1β, IL-6, and IL-10) in sera were detected using the ELISA kits.

[9] = tested on: A. veronii ACCC61732 biofilms; assay: Mouse model of catheter-associated biofilm infection, bacteria in catheter; assay type: in vivo, ICR mice; details: 5 μmol/kg peptide or CIP 24 h after catheter implantation, catheters collected after seven days, six mice per group
Experimental: Briefly, the catheter was cut into 1 cm segments; each piece was sterilized with 70% ethanol and then dried by air. Bacterial biofilms were developed on the catheter by placing individual segments into tubes containing 1.0 mL of a cell suspension (1 × 10^8 CFU/mL) in TSB. After incubation for 24 h at 37 °C, colonized catheters were recovered aseptically and rinsed with PBS to remove unbound bacteria. ICR female mice (20 ± 5 g) were anesthetized with isoflurane; the flanks were shaved and the skin was cleansed with alcohol. […] The incision was then covered with intact skin and closed with surgical suture line and the skin was disinfected. […] The untreated mice were used as the negative control and the mice with sterile catheter were used as the blank control. The mice were anesthetized and sacrificed after seven days. The catheters in the back of the mice were collected and thoroughly shaken in sterile PBS.

[10] = E. coli CVCC25922, broth dilution, 37 °C, 16–18 h, three experiments
[11] = S. pullorum CVCC1809, broth dilution, 37 °C, 16–18 h, three experiments
[12] = A. veronii X-1-06909, broth dilution, 37 °C, 16–18 h, three experiments
[13] = E. coli CVCC1515, broth dilution, 37 °C, 16–18 h, three experiments
[14] = S. pullorum CVCC533, broth dilution, 37 °C, 16–18 h, three experiments
[15] = Escherichia coli CVCC195, broth dilution, 37 °C, 16–18 h, three experiments
[16] = S. enteritidis CVCC3377, broth dilution, 37 °C, 16–18 h, three experiments
[17] = S. pullorum CVCC1789, broth dilution, 37 °C, 16–18 h, three experiments
[18] = Staphylococcus aureus ATCC43300, broth dilution, 37 °C, 16–18 h, three experiments
[19] = S. hyicus 437-2 (clinical isolate, pig farm), broth dilution, 37 °C, 16–18 h, three experiments

| SMILES | MIC (E. coli CVCC25922; [10]) | MIC (S. pullorum CVCC1809; [11]) | MIC (A. veronii X-1-06909; [12]) | MIC (A. veronii X-1-06909; read-out: MIC) | MIC (E. coli CVCC1515; [13]) | MIC (S. pullorum CVCC533; CVCC533, read-out: MIC) | MIC (S. pullorum CVCC533; [14]) | MIC (Escherichia coli CVCC195; [15]) | MIC (S. enteritidis CVCC3377; CVCC3377, read-out: MIC) | MIC (S. enteritidis CVCC3377; [16]) | MIC (S. pullorum CVCC1789; CVCC1789, read-out: MIC) | MIC (S. pullorum CVCC1789; [17]) | MIC [2, 18] | bacteria in biofilm killed [3]; 8 | bacteria in biofilm killed [3]; 16 | increase of MIC after 30 serial passages (A. veronii ACCC61732 [5]) | MIC (E. coli CVCCO157) | time to completely kill A. veronii ACCC61732 (A. veronii ACCC61732 [6]) | PAE (A. veronii ACCC61732 [7]; 1× MIC) | PAE (A. veronii ACCC61732 [7]; 2× MIC) | also measured |
| --- | --- | --- | --- | --- | --- | --- | --- | --- | --- | --- | --- | --- | --- | --- | --- | --- | --- | --- | --- | --- | --- |
| CC(C)[C@@H]1NC(=O)CNC(=O)[C@H](CC(N)=O)NC(=O)[C@H](CCCNC(=N)N)NC(=O)[C@H](Cc2ccc(O)cc2)NC(=O)[C@H](C(C)C)NC(=O)[C@@H](NC(=O)[C@@H](NC(=O)[C@H](CC(N)=O)NC(=O)[C@H](Cc2c[nH]c3ccccc23)NC(=O)[C@H](C)NC(=O)[C@H](Cc2ccccc2)NC(=O)[C@H](CCCN)N=C(N(C)C)N(C)C)C(C)C)CSSC[C@@H](C(=O)N[C@@H](Cc2c[nH]cn2)C(=O)N[C@@H](CCCNC(=N)N)C(=O)N[C@@H](CCCNC(=N)N)C(=O)N[C@@H](C)C(=O)N[C@@H](CC(N)=O)C(N)=O)NC(=O)[C@H](C(C)C)NC(=O)[C@H](CCCNC(=N)N)NC1=O (stereo in doubt) [Guo-N6NH2] | 4 µg/mL | 4 µg/mL | 16 µg/mL | 6.08 µM | 2 µg/mL | 3.04 µM | 8 µg/mL | 4 µg/mL | 0.76 µM | 2 µg/mL | 3.04 µM | 8 µg/mL | 16 µg/mL | 46.26% | 54.31% | three-fold | 4 µg/mL | 6 h | 0.62 ± 0.01 h | 1.32 ± 0.08 h | MIC (E. coli CVCC1515; CVCC1515, read-out: MIC): 0.76 µM; MIC ([1]; read-out: MIC): >48.6 µM; MIC ([2]; ATCC43300, read-out: MIC): 6.08 µM; MICa, MIC of the peptide used alone (A. veronii ACCC61732 [4]): 8 µg/mL; interaction with polymyxin B (PMB) (A. veronii ACCC61732 [4]; checkerboard, by FICI): synergic effect; MIC after trypsin treatment (trypsin; pH 8): lost their activity; PAEs, range over 1×–4× MIC (A. veronii ACCC61732 [7]; 1× to 4× MIC): 0.62 to 2.07 h; PAE (A. veronii ACCC61732 [7]; 4× MIC): 2.07 ± 0.08 h; MIC (S. hyicus 437-2): 12.16 µM; MIC (S. hyicus 437-2; [19]): 32 µg/mL |
| CC(C)[C@H]1NC(=O)CNC(=O)[C@@H](CC(N)=O)NC(=O)[C@@H](CCCNC(=N)N)NC(=O)[C@@H](Cc2ccc(O)cc2)NC(=O)[C@@H](C(C)C)NC(=O)[C@H](NC(=O)[C@H](NC(=O)[C@@H](CC(N)=O)NC(=O)[C@@H](Cc2c[nH]c3ccccc23)NC(=O)[C@@H](C)NC(=O)[C@@H](Cc2ccccc2)NC(=O)CN)C(C)C)CSSC[C@H](C(=O)N[C@H](Cc2c[nH]cn2)C(=O)N[C@H](CCCNC(=N)N)C(=O)N[C@H](CCCNC(=N)N)C(=O)N[C@H](C)C(=O)N[C@H](CC(N)=O)C(N)=O)NC(=O)[C@@H](C(C)C)NC(=O)[C@@H](CCCNC(=N)N)NC1=O [DN6NH2] | 8 µg/mL | 8 µg/mL | 32 µg/mL | 12.93 µM | 4 µg/mL | 6.46 µM | 16 µg/mL | 8 µg/mL | 0.81 µM | 2 µg/mL | 6.46 µM | 16 µg/mL | 4 µg/mL | 64.22% | 66.79% | seven-fold | 4 µg/mL | ≤ 1 h | 0.68 ± 0.01 h | 1.13 ± 0.11 h | MIC (E. coli CVCC25922; CVCC25922, read-out: MIC): 3.23 µM; MIC (S. pullorum CVCC1809; CVCC1809, read-out: MIC): 3.23 µM; MIC (E. coli CVCC1515; E. coli CVCC1515, broth dilution, 37 °C, 16–18 h, three experiments, read-out: MIC): 1.62 µM; MIC (Escherichia coli CVCC195; CVCC195, read-out: MIC): 3.23 µM; MIC [1]: 128 µg/mL; MIC ([2]; Staphylococcus aureus ATCC43300, broth dilution, 37 °C, 16–18 h, three experiments, read-out: MIC): 1.62 µM; structure after trypsin treatment, MS analysis (trypsin): not affected by trypsin; MIC (E. coli CVCCO157; read-out: MIC): 1.62 µM; PAE (A. veronii ACCC61732 [7]; 4× MIC): 3.36 ± 0.19 h; MIC (S. hyicus 437-2): 3.23 µM; MIC (S. hyicus 437-2; [19]): 8 µg/mL; reduction of bacteria in kidneys (A. veronii ACCC61732 [8]): 80.10%; reduction of bacteria in livers (A. veronii ACCC61732 [8]): 89.65%; reduction of bacteria in lungs (A. veronii ACCC61732 [8]): 81.61%; reduction of bacteria in spleens (A. veronii ACCC61732 [8]): 70.38%; decrease of bacterial cells in the catheter [9]: 71.55% |
